Measured values from patent publication US10272082B2, “Combination ALS therapy” (Cytokinetics, Inc., priority 2011, dated 2019).
Entries after “also recorded” stand apart in the source; their conditions may differ.

Tests used:
human hepatic microsomes = conditions: in vitro; high concentrations required; cited from earlier work
[1] = ALS patients
clinical = conditions: human, plasma, CK-2017357 Cmax, 14 days, ALS patients
CYP1A2 = target: T1, CYP1A2 (Homo sapiens, UniProt P05177); test: Mechanism-based inhibition of human CYP1A2 in vitro; type: in vitro ADME
T1 sequence (P05177 1-516): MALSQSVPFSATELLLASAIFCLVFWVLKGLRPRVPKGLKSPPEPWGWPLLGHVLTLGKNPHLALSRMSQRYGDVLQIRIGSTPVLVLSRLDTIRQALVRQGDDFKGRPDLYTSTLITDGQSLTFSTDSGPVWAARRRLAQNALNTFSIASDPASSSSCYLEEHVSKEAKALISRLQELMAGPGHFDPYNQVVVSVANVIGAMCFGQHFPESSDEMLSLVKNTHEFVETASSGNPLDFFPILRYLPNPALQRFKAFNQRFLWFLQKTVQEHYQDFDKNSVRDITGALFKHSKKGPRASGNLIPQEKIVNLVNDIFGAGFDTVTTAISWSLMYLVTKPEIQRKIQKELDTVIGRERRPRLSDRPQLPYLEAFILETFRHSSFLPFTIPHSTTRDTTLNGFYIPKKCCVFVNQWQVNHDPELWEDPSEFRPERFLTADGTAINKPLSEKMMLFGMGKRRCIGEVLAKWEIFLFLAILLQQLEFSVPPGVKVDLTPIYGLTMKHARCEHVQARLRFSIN

[2] = Previous clinical experiments with CK-2017357 once a day in the morning; type: in vivo, human
Source text: In previous clinical experiments, 1-(ethylpropyl)-6-ethynylimidazo[4,5-b]pyrazin-2-ol (CK-2017357) has been administered once a day in the morning. While improvements in patient and investigator global assessments, muscle fatigability and pulmonary function have been observed in these studies, dizziness has been a dose-limiting adverse event in both healthy volunteers and in patients with ALS. This example examines whether the maximum tolerable total daily dose of CK-2017357 can be increased by dividing the daily dose into two portions (morning and evening), and beginning treatment with a low dose and titrating upward to a target of 250 mg twice daily.

[3] = Example 4: twice-daily dose titration regimen of CK-2017357 in patients with ALS; type: in vivo
Source text: Patients enrolled in this clinical study were randomized, double-blind, and placebo-controlled.
Placebo patients underwent a similar dummy dose titration to maintain the blind. FIG. 4 illustrates the study design.

[4] = repeated single daily doses 125-375 mg

In the case of `CN(C)CCCN1c2ccccc2CCc2ccc(Cl)cc21` [clomipramine], the “inhibition of the metabolism of riluzole by human hepatic microsomes” value (shortened to “inhibition of the metabolism of riluzole”) (human hepatic microsomes) is listed as “inhibition has been observed”.
For `CN(C)CCC=C1c2ccccc2CCc2ccccc21` [amitriptyline], the “inhibition of the metabolism of riluzole” value (human hepatic microsomes) is given as “inhibition has been observed”.
For `CO[C@]12C[C@@H](COC(=O)c3cncc(Br)c3)CN(C)[C@@H]1Cc1cn(C)c3cccc2c13` [nicergoline], the “inhibition of the metabolism of riluzole” value (human hepatic microsomes) is listed as “inhibition has been observed”.
In the case of `C#Cc1cnc2nc(O)n(C(CC)CC)c2n1` [CK-2017357, 6-Ethynyl-1-(pentan-3-yl)-1H-imidazo[4,5-b]pyrazin-2(3H)-one], the “dose dependence of CK-2017357 pharmacokinetics” value ([1]; 125, 250, 375 mg daily for 14 days) is reported as “increased proportionally by dose; also recorded: predictable linear kinetics”, the “adverse event frequencies in the presence of riluzole” value ([1]; at any dose of CK-2017357) is reported as “not altered” and the “plasma levels achieved steady state by” value [1, 4] is reported as no more than 8 days. For the same molecule, the “time to reach steady state” value [1, 4] was no more than 1 week, the “plasma level four hours after dosing on Day 8 higher than four hours after first dose on Day 1” value ([1]; repeated single daily doses) was “approximately 70%” and the “effect of riluzole on CK-2017357 Cmax / plasma levels” value ([1]; riluzole 50 mg daily vs none) was “no apparent effect of riluzole; also recorded: not affected”. The Cmax (clinical; 50 mg, CK-2017357 daily dose 125 (mg), On Riluzole (50 mg daily)) was 6000 ng/mL, the Cmax (clinical; 50 mg, CK-2017357 daily dose 250 (mg), On Riluzole (50 mg daily)) was 8400 ng/mL and the Cmax (clinical; 50 mg, CK-2017357 daily dose 375 (mg), On Riluzole (50 mg daily)) was 13500 ng/mL. The Cmax (clinical; 125 mg, CK-2017357 daily dose 125 (mg), No Riluzole) was 4100 ng/mL, the Cmax (clinical; 250 mg, CK-2017357 daily dose 250 (mg), No Riluzole) was 7400 ng/mL and the Cmax (clinical; 375 mg, CK-2017357 daily dose 375 (mg), No Riluzole) was 12700 ng/mL. For the same molecule, the KI (inactivation) (CYP1A2; read-out: K1 (inactivation constant)) was 1900 nM, the kinact (CYP1A2; read-out: kinact (max rate constant for inactivation) (converted)) was 0.000517 s⁻¹ and the dose-limiting adverse event ([2]; healthy volunteers and patients with ALS) was “dizziness”. For the same molecule, the “patient and investigator global assessments, muscle fatigability and pulmonary function” value ([2]; previous clinical experiments) was “improvements”, the “safety and tolerability of twice-daily dose titration regimen” value ([3]; ALS patients) was “safe and well tolerated” and the “ALSFRS-R score and MVV” value ([3]; CK-2017357 relative to placebo, ALS patients) was “Encouraging trends toward increases”. For the same molecule, the “patients in whom dizziness was self-limited” value ([3]; of 12 patients in whom it occurred) was 6 patients, the “patients in whom dizziness was mild” value ([3]; of the 12 patients in whom it occurred) was 10 patients and the “patients escalated to the highest total daily dose of 500 mg and completing three weeks of dosing” value ([3]; of the 21 patients randomized to CK-2017357, twice-daily titration, riluzole 50 mg QD) was 14 patients. For the same molecule, the “most commonly reported treatment-emergent adverse event” value ([3]; twice-daily dose titration 250-500 mg total daily, ALS patients) was “dizziness”.
In the case of `O=C(O)Cc1ccccc1Nc1c(Cl)cccc1Cl` [diclofenac], the “inhibition of the metabolism of riluzole” value (human hepatic microsomes) is listed as “inhibition has been observed”.
